# Reference: patent publication US20100330049A1, “METHOD FOR GENERATING ISLET BETA CELLS FROM DEDIFFERENTIATED EXOCRINE PANCREATIC CELLS” (Vrije Universiteit Brussel, priority 2008, published 2010)
# Tests used:
# Format in all cases: cell-based, rat
# acinar cells = assay: acinar-to-beta cell conversion in monolayer culture with differentiation factors (immunocytochemical cell counts); details: for toxic effects on the epithelial monolayers: Jagged1 2 μg/ml, Dll4 5 μg/ml, 3 days culture; for beta cell neogenesis (acino-insular conversion): exposure of EGF and LIF treated cells to Notch1 ligands; for expression of Ngn3, Pdx1 and insulin / reduction of the number of newly formed beta cells: ligands immobilized on culture plates, EGF/LIF-treated acinar cells; for expression of Pdx1 during 72 h exposure to EGF and LIF (FIG. 2C) / expression of insulin during 72 h exposure to EGF and LIF (FIG. 2E) / re-expression of Ngn3 during 72 h exposure to EGF and LIF (FIG. 2A): n=7, compared to EGF and LIF controls
# Source text: Male 10-12 week old Wistar rats (Charles River Laboratories) weighing 250-300 g were used for the isolation of cells from the pancreas. Pancreata were partially dissociated with collagenase and exocrine acini were purified by centrifugal elutriation as published before (Rooman et al., 2000 Diabetologia 43:907-914). All animal experimentation was approved by the Ethical Committee of the Free University of Brussels.
# Acinar cells were pre-cultured for 4 days in bacteriological Petri dishes (Nunc) in suspension culture in RPMI-1640 Glutamax-I medium supplemented with 10% fetal bovine serum (FBS, Invitrogen), penicillin (75 mg/l) (Continental Pharma) and antibiotics (Sigma, St Louis, Mo., USA). Geneticin Sulphate (50 μg/ml) (Sigma) was used to suppress fibroblast overgrowth in the culture. Medium was replaced daily during this pre-culture period. At the end of the pre-culture, cells were treated with alloxan (10 mM, Sigma) for 10 min at 37° C. to remove contaminating beta cells, and transferred to 24-well plates (Falcon, BD Biosciences) to form adherent cultures. Adherent monolayers were further cultured with RPMI supplemented with 1% FBS and antibiotics (controls). For growth factor stimulation of neogenesis this medium was supplemented with 50 ng/ml human recombinant epidermal growth factor (EGF) (Sigma,) and 40 ng/ml recombinant mouse leukemia inhibitory factor (LIF) (Sigma) (Baeyens et al. Diabetologia 48:49-57.). Stimulation of Notch signal transduction was performed using the recombinant human ligands Jagged1 (2 μg/ml, R&D Systems) and Dll4 (5 μg/ml, R&D Systems). For effective stimulation, the ligands were immobilized to the bottom of the multiwell plates prior to monolayer formation. Cell monolayers were analyzed after a culture period of 3 days in the latter media. […] Notch signaling inhibition was achieved using a recombinant form of the rat Notch1 extracellular domain (Notch1-EC, 10 μg/ml, R&D Systems). […] Proliferation was performed by bromo-deoxyuridin (BrdU) (Sigma) pulse labeling of 6 hours.
# Immunocytochemical staining of the monolayers was performed directly in the 24-well plates. For this purpose, the cell monolayers were fixed for 10 min with 4% buffered formaldehyde followed by 20 min methanol (−20° C.) for cell permeabilization. Tissues were fixed with the same fixative for 4 hours and processed for paraffin embedding. Paraffin sections were used for immunostaining as described (Bouwens et al. 1994 Diabetes 43:1279-1283). Primary antibodies used in this study are polyclonal anti-insulin (C. Van Schravendijk, VUB, Brussels) (Bouwens et al. 1994 Diabetes 43:1279-1283; Bouwens and De 1996. J. Histochem. Cytochem. 44:947-951), polyclonal anti-rat C-peptide-I (O. D. Madsen, Hagedorn Research Institute, Gentofte, Denmark) (Blume et al. 1992. Mol. Endocrinol. 6:299-307), polyclonal anti-Pdx1 (O. D. Madsen) (Rooman et al. 2000 Diabetologia 43:907-914), polyclonal anti-Ngn3 (Schwitzgebel et al. 2000. Development 127:3533-3542), monoclonal anti-cytokeratin-20 (CK20) (Novocastra) (Bouwens et al. 1994 Diabetes 43:1279-1283; Bouwens and De 1996 J. Histochem. Cytochem. 44:947-951), monoclonal anti-synaptophysin (Novocastra), polyclonal anti-MafA (Bethyl Laboratories) (Nishimura et al. 2006 Dev. Biol. 293:526-539), polyclonal anti-Glut2 (Wak-Chemie), polyclonal anti-Mist1 (SF Konieczny) (Pin et al. 2000 Anat. Rec. 259:157-167), polyclonal anti-luciferase (Promega Benelux B. V.), polyclonal anti-IAPP (Advanced Chemtech), polyclonal anti-ChromograninA (Tebu-Bio), anti-BrdU (MP Biomedicals) and polyclonal anti-α-amylase (Sigma). Secondary antibodies conjugated with fluorescein isothiocyanate, tetramethylrodamine isothiocyanate or Cy5 (Jackson Immunoresearch) were used as described previously (Gu et al., 2002 Development 129:2447-2457). DNA was visualized using Hoechst 33342 (Invitrogen).
# Notch1 mRNA = assay: knockdown efficiency of shRNA viruses, quantitative RT-PCR: Notch1 mRNA; details: corrected for actin, normalized to control virus Le-Scrambled-DsRed, n = 3
# Source text: (§1) Specific RNAi target sequences were developed using dedicated software available through the Whitehead Institute for Biomedical Research website (http://jura.wi.mit.edu/bio/) (Yuan et al. 2004 Nucleic Acids Res. 32:W130-W134). Corresponding oligo DNA molecules (Invitrogen) were cloned in the BglII and HindIII sites of the pSuper.basic vector (Oligoengine). Insert-containing clones were PCR-selected and sequenced. DNA from clones containing correct inserts was cut with EcoRI-ClaI, which released a DNA fragment containing the H1 promoter and the cloned oligo duplex, which was subsequently subcloned in the EcoRI-ClaI sites of the pTrip vector containing a DsRed reporter (Wiznerowicz and Trono 2003, J. Virol. 77:8957-8961). Screening for RNAi activity of the constructs was performed as follows: AR42J-B13 cells were plated at 70% confluency in 24 well plates at day 0. After allowing the cells to attach, 500 ng DNA of the appropriate pTrip constructs was transfected per well. After an additional 24 hours, cells were processed for quantitative RT-PCR analysis, in which 500 ng total RNA was used per condition.
# (§2) The data illustrated in Table 7 represent the efficiency of knockdown of the different shRNA viruses, measured by quantitative RT-PCR. All samples are corrected for RNA input (endogenous control: actin) and normalized to conditions transduced with control virus (Le-Scrambled-DsRed). […]
# Hes1 mRNA = assay: knockdown efficiency of shRNA viruses, quantitative RT-PCR: Hes1 mRNA; details: corrected for actin, normalized to control virus Le-Scrambled-DsRed, n = 3
# Source text: as §1, §2
Substance,toxic effects on the epithelial monolayers (acinar cells),beta cell neogenesis (acino-insular conversion) (acinar cells),"expression of Ngn3, Pdx1 and insulin (acinar cells)",reduction of the number of newly formed beta cells (acinar cells) [%],expression of Pdx1 during 72 h exposure to EGF and LIF (FIG. 2C) (acinar cells),expression of insulin during 72 h exposure to EGF and LIF (FIG. 2E) (acinar cells),re-expression of Ngn3 during 72 h exposure to EGF and LIF (FIG. 2A) (acinar cells),Notch1 mRNA expression (Mean ± SEM) (Notch1 mRNA),Hes1 mRNA expression (Mean ± SEM) (Hes1 mRNA),higher number of insulin-positive cells (acinar cells; Notch1-EC added to EGF and LIF) [fold],"cells adopting a beta cell phenotype (acinar cells; acinar cell culture, 0.5% in control conditions)","proportion of cells positive for Ngn3, Pdx1 and insulin (acinar cells; excess Notch1-EC in culture medium with EGF and LIF)"
"Dll4: recombinant human Notch ligand, immobilized to the plate bottom",no toxic effects,near complete abrogation,strongly inhibited,80,prevents this expression,prevents this expression,almost completely abrogates this pattern,,,,,
"Jagged1: recombinant human Notch ligand, immobilized to the plate bottom",no toxic effects,near complete abrogation,strongly inhibited,80,prevents this expression,prevents this expression,almost completely abrogates this pattern,,,,,
"Le-Scrambled-DsRed: negative control RNAi lentivirus, shScrambled GGUAUCUACUAGAUGUACU (SEQ ID NO:3), DsRed reporter",,,,,,,,100.0 ± 0.0,100.0 ± 0.0,,,
"Notch1-EC: recombinant form of the rat Notch1 extracellular domain, Notch signaling inhibitor (R&D Systems)",,,,,amplifies the number of cells expressing Pdx1,amplifies the number of insulin-positive cells,enhances the potency of the differentiation factors,,,3,more than 30%,marked increase
